Target: T1, ligand binding domain of human ROR gamma (Homo sapiens, UniProt P51449)
T1 construct: NM_001001523; expressed in transfected cells; host or cells: HEK293T
T1 sequence (P51449 247-497 isoform P51449-2): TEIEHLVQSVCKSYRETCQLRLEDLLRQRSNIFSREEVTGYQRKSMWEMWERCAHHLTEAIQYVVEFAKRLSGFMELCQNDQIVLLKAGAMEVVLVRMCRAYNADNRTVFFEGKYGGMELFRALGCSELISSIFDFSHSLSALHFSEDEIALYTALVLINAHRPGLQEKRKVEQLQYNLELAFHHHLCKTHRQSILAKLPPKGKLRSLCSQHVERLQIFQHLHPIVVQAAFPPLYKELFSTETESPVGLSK
Assay: ROR gamma reporter gene assay (GAL4-RORγ LBD luciferase, Dual-Glo)
Format: cell-based
Settings: HEK293T cells transfected with pM-ROR gamma, 8 concentrations 3.5 nM to 10.5 μM, 24 h incubation; read-out: result (pIC50, inhibition of RORγ transcriptional activity) (converted)
How it was run: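 HEK293T cells were co-transfected with GAL4 DBD fused to human RORγ LBD (aa 247-497), a 5×UAS firefly luciferase reporter and CMV-driven renilla luciferase, in medium with 10% charcoal-stripped FBS.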

| IC50 [pM] | SMILES |
| --- | --- |
| 339000 | CC(C)(C)C#CCN(CC(=O)c1c(Cl)cc(F)cc1Cl)C(=O)c1cnn([C@H]2CC[C@](C)(C(=O)O)CC2)c1C(F)(F)F [Example 218, trans-4-(4-((2-(2,6-dichloro-4-fluorophenyl)-2-oxoethyl)-(4,4-dimethylpent-2-ynyl)carbamoyl)-5-(trifluoromethyl)pyrazol-1-yl)-1-methylcyclohexane-1-carboxylic acid] |
| > 1e+07 | CN1CCC(CN(CC(=O)c2c(Cl)cncc2Cl)C(=O)c2cnn([C@H]3CC[C@H](C(=O)O)CC3)c2C(F)(F)F)CC1 [Example 154, trans-4-(4-((2-(3,5-dichloropyridin-4-yl)-2-oxoethyl)-((1-methylpiperidin-4-yl)methyl)carbamoyl)-5-(trifluoromethyl)pyrazol-1-yl)cyclohexane-1-carboxylic acid] |
| > 1e+07 | O=C(CN(Cc1cc(F)cc(F)c1)C(=O)c1cnn([C@H]2CC[C@H](C(=O)O)CC2)c1C(F)(F)F)C1CCCCC1 [Example 65, trans-4-(4-((2-cyclohexyl-2-oxoethyl)(3,5-difluorobenzyl)carbamoyl)-5-(trifluoromethyl)-1H-pyrazol-1-yl)cyclohexanecarboxylic acid] |
| > 1e+07 | O=C1CC[C@@H](CN(CC(=O)c2c(Cl)cncc2Cl)C(=O)c2cnn([C@H]3CC[C@H](C(=O)O)CC3)c2C(F)(F)F)N1 [Example 157, trans-4-(4-((2-(3,5-dichloropyridin-4-yl)-2-oxoethyl)-(((2S)-5-oxopyrrolidin-2-yl)methyl)carbamoyl)-5-(trifluoromethyl)pyrazol-1-yl)cyclohexane-1-carboxylic acid] |
| 11700 | Cc1cc(Cl)c(C(=O)CN(C(=O)c2cnn(C34CCC(C(=O)O)(CC3)CC4)c2C(F)(F)F)[C@H]2C[C@@H]3[C@H](C2)C3(C)C)c(Cl)c1 [Example 321, 4-(4-((2-(2,6-dichloro-4-methylphenyl)-2-oxoethyl)((1R,3r,5S)-6,6-dimethylbicyclo[3.1.0]hexan-3-yl)carbamoyl)-5-(trifluoromethyl)-1H-pyrazol-1-yl)bicyclo[2.2.2]octane-1-carboxylic acid] |
| 56200 | CC(C)(C)CN(CCc1c[nH]c2cccc(Cl)c12)C(=O)c1cnn([C@H]2CC[C@](C)(C(=O)O)CC2)c1C(F)(F)F [Example 334, trans-4-(4-(2-(4-chloro-1H-indol-3-yl)ethyl-(2,2-dimethylpropyl)carbamoyl)-5-(trifluoromethyl)pyrazol-1-yl)-1-methylcyclohexane-1-carboxylic acid] |
| 31600 | CC1(C)CCC(N(CC(=O)c2c(Cl)cccc2C(F)(F)F)C(=O)c2cnn(C34CCC(C(=O)O)(CC3)CC4)c2C(F)(F)F)CC1 [Example 242, 4-(4-((2-(2-chloro-6-(trifluoromethyl)phenyl)-2-oxoethyl)-(4,4-dimethylcyclohexyl)carbamoyl)-5-(trifluoromethyl)pyrazol-1-yl)bicyclo[2.2.2]octane-1-carboxylic acid] |
| 2.95e+06 | CC(C)(C)CN(CCc1c[nH]c2ccccc12)C(=O)c1cnn([C@H]2CC[C@](C)(C(=O)O)CC2)c1C(F)(F)F [Example 328, trans-4-(4-(2,2-dimethylpropyl-(2-(1H-indol-3-yl)ethyl)carbamoyl)-5-(trifluoromethyl)pyrazol-1-yl)-1-methylcyclohexane-1-carboxylic acid] |
| 112000 | CC(C)(C)CCN(CC(=O)c1c(Cl)cncc1Cl)C(=O)c1cnn([C@H]2CC[C@H](C(=O)O)CC2)c1C(F)(F)F [Example 33, trans-4-(4-((2-(3,5-dichloropyridin-4-yl)-2-oxoethyl)(3,3-dimethylbutyl)carbamoyl)-5-(trifluorornethyl)-1H-pyrazol-1-yl)cyclohexanecarboxylic acid] |
| 3.39e+06 | CC1(C)[C@@H]2C[C@H](N(C[C@@H](O)c3ccccc3C(F)(F)F)C(=O)c3cnn([C@H]4CC[C@](C)(C(=O)O)CC4)c3C(F)(F)F)C[C@@H]21 [Example 373, trans-4-(4-(((1R,3r,5S)-6,6-dimethylbicyclo[3.1.0]hexan-3-yl)(2-hydroxy-2-(2-(trifluoromethyl)phenyl)ethyl)carbamoyl)-5-(trifluoromethyl)-1H-pyrazol-1-yl)-1-methylcyclohexanecarboxylic acid] |
| 16200 | O=C(CN(Cc1cc(F)cc(F)c1)C(=O)c1cnn([C@H]2CC[C@H](C(=O)O)CC2)c1C(F)(F)F)c1c(Cl)cccc1Cl [Example 53, trans-4-(4-((2-(2,6-dichlorophenyl)-2-oxoethyl)(3,5-difluorobenzyl)carbamoyl)-5-(trifluoromethyl)-1H-pyrazol-1-yl)cyclohexanecarboxylic acid] |
| 2.04e+06 | O=C(CN(Cc1cc(F)cc(F)c1)C(=O)c1cnn([C@H]2CC[C@H](C(=O)O)CC2)c1C(F)(F)F)c1c(Cl)cc(OC(F)(F)F)cc1Cl [Example 127, trans-4-(4-((2-(2,6-dichloro-4-(trifluoromethoxy)phenyl)-2-oxoethyl)-((3,5-difluorophenyl)methyl)carbamoyl)-5-(trifluoromethyl)pyrazol-1-yl)cyclohexane-1-carboxylic acid] |
| 10000 | COc1cccc(Cl)c1C(=O)CN(CC1CC(C)(C)C1)C(=O)c1cnn([C@H]2CC[C@](C)(C(=O)O)CC2)c1C(F)(F)F [Example 252, trans-4-(4-((2-(2-chloro-6-methoxyphenyl)-2-oxoethyl)-((3,3-dimethylcyclobutyl)methyl)carbamoyl)-5-(trifluoromethyl)pyrazol-1-yl)-1-methylcyclohexane-1-carboxylic acid] |
| 45700 | COc1cccc(Cl)c1[C@H](O)CN(C(=O)c1cnn([C@H]2CC[C@](C)(C(=O)O)CC2)c1C(F)(F)F)[C@H]1C[C@@H]2[C@H](C1)C2(C)C [Example 342, trans-4-(4-((2-(2-chloro-6-methoxyphenyl)-2-hydroxyethyl)((1R,3r,5S)-6,6-dimethylbicyclo[3.1.0]hexan-3-yl)carbamoyl)-5-(trifluoromethyl)-1H-pyrazol-1-yl)-1-methylcyclohexanecarboxylic acid] |
| 6610 | CC1(C)CCC(N(CC(=O)c2c(Cl)cc(F)cc2Cl)C(=O)c2cnn(C34CCC(C(=O)O)(CC3)CC4)c2C(F)(F)F)CC1 [Example 230, 4-(4-((2-(2,6-dichloro-4-fluorophenyl)-2-oxoethyl)-(4,4-dimethylcyclohexyl)carbamoyl)-5-(trifluoromethyl)pyrazol-1-yl)bicyclo[2.2.2]octane-1-carboxylic acid] |
| 33900 | C[C@]1(C(=O)O)CC[C@H](n2ncc(C(=O)N(CC(=O)c3c(Cl)cncc3Cl)Cc3ccc(F)cc3)c2C(F)(F)F)CC1 [Example 77, trans-4-(4-((2-(3,5-dichloropyridin-4-yl)-2-oxoethyl)(4-fluorobenzyl)carbamoyl)-5-(trifluoromethyl)-1H-pyrazol-1-yl)-1-methylcylohexanecarboxylic acid] |
| 513000 | C[C@]1(C(=O)O)CC[C@H](n2ncc(C(=O)N(CC(=O)c3c(Cl)cc(F)cc3Cl)Cc3cc(F)cc(F)c3)c2C(F)F)CC1 [Example 197, trans-4-(4-((2-(2,6-dichloro-4-fluorophenyl)-2-oxoethyl)-((3,5-difluorophenyl)methyl)carbamoyl)-5-(difluoromethyl)pyrazol-1-yl)-1-methylcyclohexane-1-carboxylic acid] |
| 57500 | CC1(C)CCC(N(CC(O)c2c(Cl)cc(F)cc2Cl)C(=O)c2cnn([C@H]3CC[C@](C)(C(=O)O)CC3)c2C(F)(F)F)CC1 (single isomer, unassigned) [Example 362, trans-4-(4-(((2R)-2-(2,6-dichloro-4-fluorophenyl)-2-hydroxyethyl)-(4,4-dimethylcyclohexyl)carbamoyl)-5-(trifluoromethyl)pyrazol-1-yl)-1-methylcyclohexane-1-carboxylic acid or trans-4-(4-(((2S)-2-(2,6-dichloro-4-fluorophenyl)-2-hydroxyethyl)-(4,4-dimethylcyclohexyl)carbamoyl)-5-(trifluoromethyl)pyrazol-1-yl)-1-methylcyclohexane-1-carboxylic acid] |
| 22400 | CC1(C)[C@@H]2C[C@H](N(CC(=O)c3c(Cl)cccc3Cl)C(=O)c3cnn([C@H]4CC[C@](C)(C(=O)O)CC4)c3C3(F)CC3)C[C@@H]21 [Example 404, trans-4-(4-((2-(2,6-dichlorophenyl)-2-oxoethyl)((1R,3r,5S)-6,6-dimethylbicyclo[3.1.0]hexan-3-yl)carbamoyl)-5-(1-fluorocyclopropyl)-1H-pyrazol-1-yl)-1-methylcyclohexanecarboxylic acid] |
| > 1.05e+07 | CC(C)(C)CN(CC(=O)c1c(Cl)cncc1Cl)C(=O)c1cnn([C@H]2CC[C@](C)(C(=O)O)CC2)c1C#N [Example 310, trans-4-(5-cyano-4-((2-(3,5-dichloropyridin-4-yl)-2-oxoethyl)-(2,2-dimethylpropyl)carbamoyl)pyrazol-1-yl)-1-methylcyclohexane-1-carboxylic acid] |
| 224000 | CC1(C)[C@@H]2C[C@H](N(CC(O)c3ccsc3Cl)C(=O)c3cnn([C@H]4CC[C@](C)(C(=O)O)CC4)c3C(F)(F)F)C[C@@H]21 (stereo partly drawn) [Example 411, trans-4-(4-((2-(2-chlorothiophen-3-yl)-2-hydroxyethyl)((1R,3r,5S)-6,6-dimethylbicyclo[3.1.0]hexan-3-yl)carbamoyl)-5-(trifluoromethyl)-1H-pyrazol-1-y1)-1-methylcyclohexanecarboxylic acid] |

— patent US9365522B2, “Pyrazole amide derivative” (AMGEN INC., priority 2015, dated 2016)
